Target: T1, Human complement C1s enzyme (Homo sapiens, UniProt P09871)
T1 construct: purified from human serum, Complement Technology, Inc; purchased Complement Technology, Inc; host or cells: human serum
T1 sequence (P09871 438-688 limits assumed): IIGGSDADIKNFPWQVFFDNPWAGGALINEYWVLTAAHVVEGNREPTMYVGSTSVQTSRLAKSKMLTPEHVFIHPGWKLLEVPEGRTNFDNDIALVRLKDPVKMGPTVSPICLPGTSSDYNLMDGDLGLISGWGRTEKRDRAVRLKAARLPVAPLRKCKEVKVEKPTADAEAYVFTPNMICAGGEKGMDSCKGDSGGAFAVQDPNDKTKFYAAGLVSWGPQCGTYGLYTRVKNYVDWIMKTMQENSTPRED
T1 sequence (P09871 16-437 partner limits assumed): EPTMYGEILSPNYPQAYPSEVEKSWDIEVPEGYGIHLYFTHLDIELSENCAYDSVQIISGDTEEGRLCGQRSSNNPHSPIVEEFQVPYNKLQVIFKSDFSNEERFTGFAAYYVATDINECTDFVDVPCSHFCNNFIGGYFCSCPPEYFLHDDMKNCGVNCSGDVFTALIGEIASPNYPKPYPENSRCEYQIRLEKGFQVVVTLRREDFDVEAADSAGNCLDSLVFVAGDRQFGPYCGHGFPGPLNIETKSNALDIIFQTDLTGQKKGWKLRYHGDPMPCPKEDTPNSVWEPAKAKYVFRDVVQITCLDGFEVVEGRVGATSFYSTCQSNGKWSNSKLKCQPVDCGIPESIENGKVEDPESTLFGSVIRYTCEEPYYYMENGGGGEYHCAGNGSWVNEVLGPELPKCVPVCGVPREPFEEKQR
Test: Human C1s Enzyme Assay
Assay type: biochemical
Details: human C1s 1.16 nM, 5 min preincubation, substrate Z-L-Lys-SBzl 100 μM, A405; read-out: C1s Protease Activity
In short: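 IC50 values were fitted by nonlinear regression to rates measured as A405 every 30 s for 30 min. The thioester substrate Z-L-Lys-SBzl and Ellman's reagent were each at 100 μM. Serum-derived C1s at 1.16 nM final had 5 min of room-temperature preincubation with compound (pH 7.5 Tris buffer, 1 M NaCl).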

Structure (SMILES)	IC50
C[C@@H](NC(=O)[C@@H]1C[C@]2(C)C[C@@H]2N1C(=O)CNC(=O)c1ccc(Oc2ccccc2)cc1)c1cc(C(=N)N)cs1 (single isomer, unassigned) [Compound 49, (1S,3S,5S)-N-((R*)-1-(4-carbamimidoylthiophen-2-yl)ethyl)-5-methyl-2-((4-phenoxy-benzoyl)glycyl)-2-azabicyclo[3.1.0]hexane-3-carboxamide]	100 to 1000 nM
N=C(N)c1csc(CNC(=O)CNC(=O)CNC(=O)c2ccc(Oc3ccccc3)cc2)c1 [Compound 77, N-(2-((2-(((4-carbamimidoylthiophen-2-yl)methyl)amino)-2-oxoethyl)amino)-2-oxoethyl)-4-phenoxybenzamide]	100 to 1000 nM
COC[C@@]12C[C@@H]1N(C(=O)CNC(=O)CCCOc1ccccc1)[C@H](C(=O)NCc1cc(C(=N)N)cs1)C2 [Compound 63, (1S,3S,5R)-N-((4-carbamimidoylthiophen-2-yl)methyl)-5-(methoxymethyl)-2-((4-phenoxybutanoyl)glycyl)-2-azabicyclo[3.1.0]hexane-3-carboxamide]	< 100 nM
C[C@@H](NC(=O)[C@@H]1C[C@@H](S(C)(=O)=O)CN1C(=O)CNC(=O)CCCOc1ccccc1)c1cc(C(=N)N)cs1 [Compound 125, (2S,4R)-N-((R)-1-(4-carbamimidoylthiophen-2-yl)ethyl)-4-(methylsulfonyl)-1-((4-phenoxybutanoyl)glycyl)pyrrolidine-2-carboxamide]	< 100 nM
CC(=O)O/N=C(\N)c1csc(CNC(=O)[C@@H]2C[C@]3(C)C[C@@H]3N2C(=O)CN(C[C@H](O)[C@H](O)[C@@H](O)[C@H](C)O)C(=O)OC(C)(C)C)c1 [Compound 25, tert-butyl (2-((1S,3S,5S)-3-(((4-(N-acetoxycarbamimidoyl)thiophen-2-yl)methyl)-carbamoyl)-5-methyl-2-azabicyclo[3.1.0]hexan-2-yl)-2-oxoethyl)((2S,3S,4S,5S)-2,3,4,5-tetrahydroxyhexyl)carbamate]	> 1000 nM
C[C@@H](NC(=O)[C@@H]1CC2(CN1C(=O)CNC(=O)CCCOc1ccccc1)OCCO2)c1cc(C(=N)N)cs1 [Compound 115, (S)-N-((R)-1-(4-carbamimidoylthiophen-2-yl)ethyl)-7-((4-phenoxybutanoyl)glycyl)-1,4-dioxa-7-azaspiro[4.4]nonane-8-carboxamide]	< 100 nM
CC(=O)NCCOC[C@@]12C[C@@H]1N(C(=O)CNC(=O)c1ccc(Oc3ccccc3)cc1)[C@H](C(=O)NCc1cc(C(=N)N)cs1)C2 [Compound 74, (1S,3S,5R)-5-((2-acetamidoethoxy)methyl)-N-((4-carbamimidoylthiophen-2-yl)methyl)-2-((4-phenoxybenzoyl)glycyl)-2-azabicyclo[3.1.0]hexane-3-carboxamide]	< 100 nM
C[C@@]12C[C@@H]1N(C(=O)CNC(=O)c1ccc(Oc3ccccc3)cc1)[C@H](C(=O)NCc1cc(S(C)(=N)=O)cs1)C2 (stereo partly drawn) [Compound 23, (1S,3S,5S)-5-methyl-N-((4-(S-methylsulfonimidoyl)thiophen-2-yl)methyl)-2-((4-phenoxybenzoyl)glycyl)-2-azabicyclo[3.1.0]hexane-3-carboxamide]	> 1000 nM
N=C(N)c1csc(CNC(=O)[C@@H]2C[C@]3(CN2C(=O)CNC(=O)CCCOc2ccccc2)CC3(F)F)c1 [Compound 57, (3R,6S)-N-((4-carbamimidoylthiophen-2-yl)methyl)-1,1-difluoro-5-((4-phenoxy-butanoyl)glycyl)-5-azaspiro[2.4]heptane-6-carboxamide]	< 100 nM
CC(=O)NCc1cc(C(=O)NCC(=O)N2[C@H]3C[C@@]3(C)C[C@H]2C(=O)NCc2cc(C(=N)N)cs2)ccc1Oc1ccccc1 [Compound 10]	< 100 nM
C[C@@H](NC(=O)[C@@H]1C[C@@H](c2ccccc2)CN1C(=O)CNC(=O)CCCOc1ccccc1)c1cc(C(=N)N)cs1 [Compound 158, (2S,4S)-N-((R)-1-(4-carbamimidoylthiophen-2-yl)ethyl)-1-((4-phenoxybutanoyl)glycyl)-4-phenylpyrrolidine-2-carboxamide]	< 100 nM
N=C(N)c1csc(CNC(=O)[C@@H]2C[C@H](C3CCCCC3)CN2C(=O)CNC(=O)CCCOc2ccccc2)c1 [Compound 242, (2S,4R)-N-((4-carbamimidoylthiophen-2-yl)methyl)-4-cyclohexyl-1-((4-phenoxybutanoyl)glycyl)pyrrolidine-2-carboxamide]	< 100 nM
C[C@@]12C[C@@H]1N(C(=O)CNC(=O)CCCOc1ccccc1)[C@H](C(=O)NCc1cc(C(=N)N)cs1)C2 [Compound 44, (1S,3S,5S)-N-((4-carbamimidoylthiophen-2-yl)methyl)-5-methyl-2-((4-phenoxy-butanoyl)glycyl)-2-azabicyclo[3.1.0]hexane-3-carboxamide]	< 100 nM
N=C(N)c1csc(CNC(=O)[C@@H]2CC(O)(C(F)(F)F)CN2C(=O)CNC(=O)CCCOc2ccccc2)c1 (stereo partly drawn) [Compound 62, (2S)-N-((4-carbamimidoylthiophen-2-yl)methyl)-4-hydroxy-1-((4-phenoxybutanoyl)-glycyl)-4-(trifluoromethyl)pyrrolidine-2-carboxamide]	< 100 nM
N=C(N)c1csc(CNC(=O)[C@@H]2CC(OC(F)(F)F)CN2C(=O)CNC(=O)c2ccc(Oc3ccccc3)cc2)c1 (stereo in doubt) [Compound 247, (2S,4S)-N-((4-carbamimidoylthiophen-2-yl)methyl)-1-((4-phenoxybenzoyl)glycyl)-4-(trifluoromethoxy)pyrrolidine-2-carboxamide]	< 100 nM
C[C@@H](NC(=O)[C@@H]1CC2(CN1C(=O)CNC(=O)CCCOc1ccc(F)cc1)OCCO2)c1cc(C(=N)N)cs1 [Compound 104, (S)-N-((R)-1-(4-carbamimidoylthiophen-2-yl)ethyl)-7-((4-(4-fluorophenoxy)butanoyl)-glycyl)-1,4-dioxa-7-azaspiro[4.4]nonane-8-carboxamide]	< 100 nM
C[C@@]12C[C@@H]1N(C(=O)CNC(=O)c1ccc(OC3CCCCC3)cc1)[C@H](C(=O)NCc1cc(C(=N)N)cs1)C2 [Compound 160, (1S,3S,5S)-N-((4-carbamimidoylthiophen-2-yl)methyl)-2-((4-(cyclohexyloxy)benzoyl)glycyl)-5-methyl-2-azabicyclo[3.1.0]hexane-3-carboxamide]	< 100 nM
N=C(N)c1csc(CNC(=O)[C@@H]2C[C@@H](OC3CC3)CN2C(=O)CNC(=O)c2ccc(Oc3ccccc3)cc2)c1 [Compound 110, (2S,4R)-N-((4-carbamimidoylthiophen-2-yl)methyl)-4-cyclopropoxy-1-((4-phenoxy-benzoyl)glycyl)pyrrolidine-2-carboxamide]	< 100 nM
COC[C@@H]1C[C@@H](C(=O)N[C@H](C)c2cc(C(=N)N)cs2)N(C(=O)CNC(=O)c2ccc(Oc3ccccc3)cc2)C1 [Compound 253, (2S,4R)-N-((R)-1-(4-carbamimidoylthiophen-2-yl)ethyl)-4-(methoxymethyl)-1-((4-phenoxybenzoyl)glycyl)pyrrolidine-2-carboxamide]	< 100 nM
C[C@@H](NC(=O)[C@@H]1C[C@@H](Oc2ccccc2)CN1C(=O)CNC(=O)c1ccc(Oc2ccccc2)cc1)c1cc(C(=N)N)cs1 [Compound 181, (2S,4R)-N-((R)-1-(4-carbamimidoylthiophen-2-yl)ethyl)-4-phenoxy-1-((4-phenoxybenzoyl)glycyl)pyrrolidine-2-carboxamide]	< 100 nM
C[C@@]12C[C@@H]1N(C(=O)CNC(=O)CCCOc1ccc(C(=O)O)cc1)[C@H](C(=O)NCc1cc(C(=N)N)cs1)C2 [Compound 80, 4-(4-((2-((1S,3S,5S)-3-(((4-carbamimidoylthiophen-2-yl)methyl)carbamoyl)-5-methyl-2-azabicyclo[3.1.0]hexan-2-yl)-2-oxoethyl)amino)-4-oxobutoxy)benzoic acid]	100 to 1000 nM
C[C@@H](NC(=O)[C@@H]1C[C@]2(COCCNC(=O)COCCOCCNC(=O)COCCOCCNC(=O)CC[C@H](NC(=O)CCCCCCCCCCCCCCCCC(=O)O)C(=O)O)C[C@@H]2N1C(=O)CNC(=O)CCCOc1ccccc1)c1cc(C(=N)N)cs1 [Compound 152, (S)-1-((1S,3S,5R)-3-(((R)-1-(4-carbamimidoylthiophen-2-yl)ethyl)carbamoyl)-2-((4-phenoxybutanoyl)glycyl)-2-azabicyclo[3.1.0]hexan-5-yl)-27-carboxy-6,15,24,29-tetraoxo-2,8,11,17,20-pentaoxa-5,14,23,28-tetraazahexatetracontan-46-oic acid]	< 100 nM
C[C@@]12C[C@@H]1N(C(=O)CNC(=O)CCCOc1ccccc1)[C@H](C(=O)NCc1cc(C(=N)N)c(C(F)(F)F)s1)C2 [Compound 251, (1S,3S,5S)-N-((4-carbamimidoyl-5-(trifluoromethyl)thiophen-2-yl)methyl)-5-methyl-2-((4-phenoxybutanoyl)glycyl)-2-azabicyclo[3.1.0]hexane-3-carboxamide]	> 1000 nM

From patent US20250171423A1, “PHARMACEUTICAL COMPOUNDS FOR THE TREATMENT OF COMPLEMENT MEDIATED DISORDERS” (Achillion Pharmaceuticals, Inc., priority 2020, published 2025)
